Read-outs that look alike come from different tables or passages of the source.
Legend:
[1] = molecular target: Beta Secretase enzyme (BACE) (Homo sapiens, UniProt P56817); assay: In vitro enzymatic BACE FRET assay; format: biochemical; details: read-out: BACE1 FRET assay IC50
How it was run: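 Cleavage of a quenched 50 nM FRET peptide substrate, read as fluorescence (excitation 488 nm, […]) after 1 h and Tris quench to neutrality. Buffer: 0.05 M acetate pH 4.2 with 10% DMSO and 100 uM genapol. Inhibitor dilutions were pre-incubated 1 h with 0.2 nM enzyme.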

[2] = tested on: Aβ 40 in conditioned medium of cells stably expressing Amyloid Precursor Protein (APP); assay: In vitro BACE cell-based assay (Aβ 40 sandwich ELISA); details: Homo sapiens, HEK293
How it was run: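 Aβ40 in conditioned medium measured by pAb40/biotin-6E10 sandwich ELISA with time-resolved europium fluorescence, after 24 h exposure of stable APP cells to compounds (10-point series starting 100 μM or 10 μM; 0.1% DMSO). IC50 fitted from percent of control against concentration.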

Cathepsin D (Cat D) = Cathepsin D (Cat D) (Homo sapiens, UniProt P07339); assay: In vitro enzymatic Cathepsin D (Cat D) FRET assay; format: biochemical
Sequence of Cathepsin D (Cat D) (P07339 65-412, species assumed): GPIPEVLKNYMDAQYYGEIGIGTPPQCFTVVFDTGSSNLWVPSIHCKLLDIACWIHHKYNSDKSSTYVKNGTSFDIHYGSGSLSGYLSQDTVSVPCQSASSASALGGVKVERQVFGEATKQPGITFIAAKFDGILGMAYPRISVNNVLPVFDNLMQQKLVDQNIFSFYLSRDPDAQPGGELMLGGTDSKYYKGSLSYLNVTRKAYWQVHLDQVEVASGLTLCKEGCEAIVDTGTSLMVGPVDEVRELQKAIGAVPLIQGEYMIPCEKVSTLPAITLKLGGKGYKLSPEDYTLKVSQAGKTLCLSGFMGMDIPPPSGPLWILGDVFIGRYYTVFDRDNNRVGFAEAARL
How it was run: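 FRET peptide substrate (20 nM) is cleaved by CHO-derived recombinant enzyme (9 nM) for 1 h after a 1 h inhibitor pre-incubation, at pH 3.5 in citrate buffer with 5 mM CHAPS and 10% DMSO. Tris addition ends the reaction; fluorescence measured at 500 nm excitation, 580 nm emission.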

[3] = average IC50, in vitro enzymatic BACE FRET assay
[4] = average IC50, HEK cell assay, Aβ 40 readout
[5] = Cathepsin D FRET assay, read-out: CatD IC50
[6] = text summary referring to data in Table 2

Sequence of Beta Secretase enzyme (BACE) (P56817 46-501): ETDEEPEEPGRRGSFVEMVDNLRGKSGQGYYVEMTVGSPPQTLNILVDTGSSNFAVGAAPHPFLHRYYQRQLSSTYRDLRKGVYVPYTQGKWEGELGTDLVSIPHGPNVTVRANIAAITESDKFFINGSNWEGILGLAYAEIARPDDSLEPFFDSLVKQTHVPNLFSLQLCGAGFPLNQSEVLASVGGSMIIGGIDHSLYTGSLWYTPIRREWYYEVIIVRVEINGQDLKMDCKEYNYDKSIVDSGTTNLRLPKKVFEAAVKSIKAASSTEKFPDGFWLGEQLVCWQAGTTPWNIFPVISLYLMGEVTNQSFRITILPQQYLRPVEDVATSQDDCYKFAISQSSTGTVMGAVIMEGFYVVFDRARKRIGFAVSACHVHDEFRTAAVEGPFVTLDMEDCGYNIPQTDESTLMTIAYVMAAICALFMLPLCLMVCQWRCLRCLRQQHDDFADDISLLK

Structure (SMILES)	IC50 ([1]; average IC50) [µM]	IC50 ([2]; HEK cell, average IC50) [µM]	IC50 (Cathepsin D (Cat D); read-out: CatD IC50) [µM]	IC50 [1, 3] [µM]	IC50 [2, 4] [µM]	IC50 (Cathepsin D (Cat D); [5]) [µM]	IC50 (Cathepsin D (Cat D); [6]) [µM]	IC50 ([2]; HEK cells, average IC50) [µM]
Cc1c(C(=O)Nc2ccc3c(c2)[C@@]2(C)N=C(N)C(C)(C)S(=O)(=O)[C@@H]2C[C@H](C)O3)nc2ccc(Cl)cn12 [Example 77, N-((4aR,6S,11bR)-2-amino-3,3,6,11b-tetramethyl-4,4-dioxido-4a,5,6,11b-tetrahydro-3H-[1]benzoxepino[4,5-b][1,4]thiazin-10-yl)-6-chloro-3-methylimidazo[1,2-a]pyridine-2-carboxamide]	0.017	0.005	396	–	–	–	–	–
C#CCOc1ccc(C(=O)Nc2ccc3c(c2)[C@@]2(C)N=C(N)C(C)(C)S(=O)(=O)[C@@H]2C[C@H](C)O3)nc1 [Example 145, N-((4aR,6S,11bR)-2-amino-3,3,6,11b-tetramethyl-4,4-dioxido-4a,5,6,11b-tetrahydro-3H-[1]benzoxepino[4,5-b][1,4]thiazin-10-yl)-5-(2-propyn-1-yloxy)-2-pyridinecarboxamide]	–	–	–	0.001	0.002	329	–	–
CC1(C)C(N)=N[C@]2(C)c3cc(NC(=O)c4ccc(Cl)cn4)ccc3CCC[C@H]2S1(=O)=O [Example 43, N-((4aR,11bR)-2-amino-3,3,11b-trimethyl-4,4-dioxido-3,4a,5,6,7,11b-hexahydrobenzo[3,4]cyclohepta[1,2-b][1,4]thiazin-10-yl)-5-chloro-2-pyridinecarboxamide]	0.012	0.019	458	–	–	–	–	–
COc1cccnc1Nc1ccc2c(c1)[C@@]1(C)N=C(N)C(C)(C)S(=O)(=O)[C@@H]1CCO2 [Example 13, (4aR,11bR)-N^~10^~-(3-methoxy-2-pyridinyl)-3,3,11b-trimethyl-4a,5,6,11b-tetrahydro-3H-[1]benzoxepino[4,5-b][1,4]thiazine-2,10-diamine 4,4-dioxide]	0.094	0.073	369	–	–	–	–	–
Cc1cc(C(F)(F)F)cnc1C(=O)Nc1ccc2c(c1)[C@@]1(C)N=C(N)C(C)(C)S(=O)(=O)[C@@H]1CCS2 [Example 132, N-((4aR,11bR)-2-amino-3,3,11b-trimethyl-4,4-dioxido-4a,5,6,11b-tetrahydro-3H-[1]benzothiepino[4,5-b][1,4]thiazin-10-yl)-3-methyl-5-(trifluoromethyl)-2-pyridinecarboxamide]	–	–	–	0.002	0.0008	357	–	–
CC1(C)C(N)=N[C@]2(CF)c3cc(NC(=O)c4cnc(C(F)(F)F)cn4)ccc3OCC[C@H]2S1(=O)=O [Example 121, N-((4aR,11bS)-2-amino-11b-(fluoromethyl)-3,3-dimethyl-4,4-dioxido-4a,5,6,11b-tetrahydro-3H-[1]benzoxepino[4,5-b][1,4]thiazin-10-yl)-5-(trifluoromethyl)-2-pyrazinecarboxamide]	–	–	–	0.184	0.21	995	–	–
COc1ccc(C(=O)Nc2ccc3c(c2)[C@@]2(C)N=C(N)C(C)(C)S(=O)(=O)[C@@H]2C[C@H](C)O3)nc1 [Example 72, N-((4aR,6S,11bR)-2-amino-3,3,6,11b-tetramethyl-4,4-dioxido-4a,5,6,11b-tetrahydro-3H-[1]benzoxepino[4,5-b][1,4]thiazin-10-yl)-5-methoxy-2-pyridinecarboxamide]	0.011	0.005	1390	–	–	–	> 1200	–
Cc1cc(C(F)(F)F)cnc1C(=O)Nc1ccc2c(c1)[C@@]1(C)N=C(N)C(C)(C)S(=O)(=O)[C@@H]1CCC2 [Example 45, N-((4aR,11bR)-2-amino-3,3,11b-trimethyl-4,4-dioxido-3,4a,5,6,7,11b-hexahydrobenzo[3,4]cyclohepta[1,2-b][1,4]thiazin-10-yl)-3-methyl-5-(trifluoromethyl)-2-pyridinecarboxamide]	0.018	0.006	1460	–	–	–	> 1200	–
COc1cnc2c(Nc3ccc4c(c3)[C@@]3(CF)N=C(N)C(C)(C)S(=O)(=O)[C@H]3CCO4)nccc2n1 [Example 155, (4aS,11bS)-11b-(fluoromethyl)-N^~10^~-(2-methoxypyrido[3,4-b]pyrazin-5-yl)-3,3-dimethyl-4a,5,6,11b-tetrahydro-3H-[1]benzoxepino[4,5-b][1,4]thiazine-2,10-diamine 4,4-dioxide]	–	–	–	0.014	0.062	> 400	–	–
COc1cnc(C(=O)Nc2ccc3c(c2)[C@@]2(C)N=C(N)C(C)(C)S(=O)(=O)[C@@H]2CC(C)(C)O3)c(C)n1 [Example 101, N-((4aR,11bR)-2-amino-3,3,6,6,11b-pentamethyl-4,4-dioxido-4a,5,6,11b-tetrahydro-3H-[1]benzoxepino[4,5-b][1,4]thiazin-10-yl)-5-methoxy-3-methyl-2-pyrazinecarboxamide]	–	–	–	0.029	0.019	835	–	–
Cc1cc(OC(F)F)cnc1C(=O)Nc1ccc2c(c1)[C@@]1(C)N=C(N)C(C)(C)S(=O)(=O)[C@H]1CCO2 [Example 160, N-((4aS,11bR)-2-amino-3,3,11b-trimethyl-4,4-dioxido-4a,5,6,11b-tetrahydro-3H-[1]benzoxepino[4,5-b][1,4]thiazin-10-yl)-5-(difluoromethoxy)-3-methyl-2-pyridinecarboxamide]	0.01	–	1170	–	–	–	–	0.003
CC1(C)C(N)=N[C@]2(C)c3cc(Nc4nccc5cc(Cl)cnc45)ccc3CCC[C@H]2S1(=O)=O [Example 46, (4aR,11bR)-N^~10^~-(3-chloro-1,7-naphthyridin-8-yl)-3,3,11b-trimethyl-3,4a,5,6,7,11b-hexahydrobenzo[3,4]cyclohepta[1,2-b][1,4]thiazine-2,10-diamine 4,4-dioxide]	0.01	0.102	85.9	–	–	–	–	–
Cc1cc(Cl)cnc1C(=O)Nc1ccc2c(c1)[C@@]1(C)N=C(N)C(C)(C)S(=O)(=O)[C@H]1CCC2 [Example 9, N-((4a8,11bR)-2-amino-3,3,11b-trimethyl-4,4-dioxido-3,4a,5,6,7,11b-hexahydrobenzo[3,4]cyclohepta[1,2-b][1,4]thiazin-10-yl)-5-chloro-3-methyl-2-pyridinecarboxamide]	0.021	0.02	757	–	–	–	–	–
Cc1cc(C#N)cnc1C(=O)Nc1cnc2c(c1)[C@@]1(C)N=C(N)C(C)(C)S(=O)(=O)[C@H]1CCO2 [Example 21, N-((4aS,11bR)-2-amino-3,3,11b-trimethyl-4,4-dioxido-4a,5,6,11b-tetrahydro-3H-pyrido[3′,2′:6,7]oxepino[4,5-b][1,4]thiazin-10-yl)-5-cyano-3-methyl-2-pyridinecarboxamide]	0.007	0.026	1420	–	–	–	–	–
COCc1ccc(C(=O)Nc2ccc3c(c2)[C@@]2(C)N=C(N)C(C)(C)S(=O)(=O)[C@@H]2CCO3)nc1 [Example 92, N-((4aR,11bR)-2-amino-3,3,11b-trimethyl-4,4-dioxido-4a,5,6,11b-tetrahydro-3H-[1]benzoxepino[4,5-b][1,4]thiazin-10-yl)-5-(methoxymethyl)-2-pyridinecarboxamide]	–	–	–	0.122	0.026	3050	> 1200	–
Cc1cc(Cl)cnc1C(=O)Nc1ccc2c(c1)[C@@]1(C)N=C(N)C(C)(C)S(=O)(=O)[C@H]1C[C@H](C)O2 [Example 183, N-((4aS,6S,11bR)-2-amino-3,3,6,11b-tetramethyl-4,4-dioxido-4a,5,6,11b-tetrahydro-3H-[1]benzoxepino[4,5-b][1,4]thiazin-10-yl)-5-chloro-3-methyl-2-pyridinecarboxamide]	0.009	–	44	–	–	–	–	0.003

From patent US9309263B2, “Fused multi-cyclic sulfone compounds as inhibitors of beta-secretase and methods of use thereof” (AMGEN INC., priority 2013, dated 2016)
